Data published in ChEMBL document CHEMBL1909294, “Translating clinical findings into knowledge in drug safety evaluation--drug induced liver injury prediction system (DILIps)” (PLoS Comput Biol, 2011).

What was measured:
[1] = tested on: Hepatotoxicity;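 as to HepSE bilirubinemia: bilirubinemia hepatic side effect score drawn from the DILIps training data, a prediction system for drug-induced liver injury; call rule not given here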;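 as to HepSE cholecystitis: Cholecystitis-related hepatic side effect score drawn from the DILIps (drug-induced liver injury prediction) training data set; call rule not given here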;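 as to HepSE cholelithiasis: hepatic side effect score for cholelithiasis, drawn from the DILIps training data for predicting drug-induced liver injury; call rule not given here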;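 as to HepSE cirrhosis: cirrhosis hepatic side effect score taken from the DILIps (drug-induced liver injury prediction) training set; call rule not given here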;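 as to HepSE elevated liver function tests: hepatic side effect score for raised liver function tests, as recorded in the DILIps training set used for predicting drug-induced liver injury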; as to HepSE hepatic failure: call rule not given here;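 as to HepSE hepatomegaly: hepatic side effect score for hepatomegaly, taken from the training set of the DILIps drug-induced liver injury prediction system; call rule not given here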
[2] = tested on: Hepatotoxicity; remark: listed apart in the source;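 as to HepSE bilirubinemia: bilirubinemia hepatic side effect score drawn from the DILIps training data, a prediction system for drug-induced liver injury; call rule not given here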;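 as to HepSE cholecystitis: Cholecystitis-related hepatic side effect score drawn from the DILIps (drug-induced liver injury prediction) training data set; call rule not given here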;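 as to HepSE cholelithiasis: hepatic side effect score for cholelithiasis, drawn from the DILIps training data for predicting drug-induced liver injury; call rule not given here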;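 as to HepSE cirrhosis: cirrhosis hepatic side effect score taken from the DILIps (drug-induced liver injury prediction) training set; call rule not given here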;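 as to HepSE elevated liver function tests: hepatic side effect score for raised liver function tests, as recorded in the DILIps training set used for predicting drug-induced liver injury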; as to HepSE hepatic failure: call rule not given here
[3] = tested on: Hepatotoxicity; remark: listed apart in the source;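 as to HepSE bilirubinemia: bilirubinemia hepatic side effect score drawn from the DILIps training data, a prediction system for drug-induced liver injury; call rule not given here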;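 as to HepSE cholecystitis: Cholecystitis-related hepatic side effect score drawn from the DILIps (drug-induced liver injury prediction) training data set; call rule not given here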;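 as to HepSE cholelithiasis: hepatic side effect score for cholelithiasis, drawn from the DILIps training data for predicting drug-induced liver injury; call rule not given here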;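 as to HepSE cirrhosis: cirrhosis hepatic side effect score taken from the DILIps (drug-induced liver injury prediction) training set; call rule not given here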;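 as to HepSE elevated liver function tests: hepatic side effect score for raised liver function tests, as recorded in the DILIps training set used for predicting drug-induced liver injury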; as to HepSE hepatic failure: call rule not given here
[4] = tested on: Hepatotoxicity; remark: listed apart in the source;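 as to HepSE bilirubinemia: bilirubinemia hepatic side effect score drawn from the DILIps training data, a prediction system for drug-induced liver injury; call rule not given here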;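 as to HepSE cholecystitis: Cholecystitis-related hepatic side effect score drawn from the DILIps (drug-induced liver injury prediction) training data set; call rule not given here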;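 as to HepSE cholelithiasis: hepatic side effect score for cholelithiasis, drawn from the DILIps training data for predicting drug-induced liver injury; call rule not given here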;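 as to HepSE cirrhosis: cirrhosis hepatic side effect score taken from the DILIps (drug-induced liver injury prediction) training set; call rule not given here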;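 as to HepSE elevated liver function tests: hepatic side effect score for raised liver function tests, as recorded in the DILIps training set used for predicting drug-induced liver injury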; as to HepSE hepatic failure: call rule not given here
[5] = tested on: Hepatotoxicity; remark: listed apart in the source; as to HepSE hepatic failure: call rule not given here
[6] = tested on: Hepatotoxicity; remark: listed apart in the source; as to HepSE hepatic failure: call rule not given here
[7] = tested on: Hepatotoxicity; remark: listed apart in the source
[8] = tested on: Hepatotoxicity; remark: listed apart in the source
[9] = tested on: Hepatotoxicity; remark: listed apart in the source
[10] = tested on: Hepatotoxicity; remark: listed apart in the source
[11] = tested on: Hepatotoxicity; remark: listed apart in the source
[12] = tested on: Hepatotoxicity; remark: listed apart in the source
[13] = tested on: Hepatotoxicity; remark: listed apart in the source
[14] = tested on: Hepatotoxicity; remark: listed apart in the source

| SMILES | HepSE_bilirubinemia [1] | HepSE_cholecystitis [2] | HepSE_cholelithiasis [3] | HepSE_cirrhosis [4] | HepSE_elevated liver function tests [5] | HepSE_hepatic failure [6] | HepSE_hepatic necrosis [7] | HepSE_hepatitis [8] | HepSE_hepatomegaly [9] | HepSE_jaundice [10] | HepSE_liver disease [11] | HepSE_liver fatty [12] | HepSE_liver function tests abnormal [13] | HepSE_Combined Scores [14] |
| --- | --- | --- | --- | --- | --- | --- | --- | --- | --- | --- | --- | --- | --- | --- |
| CC(C)NCC(O)c1cc(O)cc(O)c1 (stereo not drawn) [METAPROTERENOL] | 0 | 0 | 0 | 0 | 0 | 0 | 0 | 0 | 0 | 0 | 0 | 0 | 0 | 0 |
| Nc1nc2c(ncn2COCCO)c(=O)[nH]1 [ACYCLOVIR] | 1 | 0 | 0 | 0 | 1 | 0 | 0 | 1 | 0 | 1 | 0 | 0 | 0 | 4 |
| COc1cc([C@@H]2c3cc4c(cc3[C@@H](O[C@@H]3O[C@@H]5CO[C@@H](c6cccs6)O[C@H]5[C@H](O)[C@H]3O)[C@H]3COC(=O)[C@H]23)OCO4)cc(OC)c1O [TENIPOSIDE] | 0 | 0 | 0 | 0 | 0 | 0 | 0 | 0 | 0 | 0 | 0 | 0 | 0 | 0 |
| CC(C)Cc1ccc(C(C)C(=O)O)cc1 (stereo not drawn) [IBUPROFEN] | 0 | 0 | 0 | 0 | 0 | 1 | 1 | 1 | 0 | 1 | 0 | 0 | 1 | 5 |
| Cc1c(OCC(F)(F)F)ccnc1C[S+]([O-])c1nc2ccccc2[nH]1 (stereo not drawn) [LANSOPRAZOLE] | 1 | 0 | 1 | 0 | 0 | 0 | 0 | 0 | 0 | 1 | 0 | 0 | 1 | 4 |
| CCc1nc(N)nc(N)c1-c1ccc(Cl)cc1 [PYRIMETHAMINE] | 0 | 0 | 0 | 0 | 0 | 0 | 0 | 0 | 0 | 0 | 0 | 0 | 0 | 0 |
| CCOC(=O)[C@H](CCc1ccccc1)N[C@@H](C)C(=O)N1Cc2ccccc2C[C@H]1C(=O)O | 0 | 0 | 0 | 0 | 0 | 1 | 0 | 1 | 0 | 0 | 0 | 0 | 1 | 3 |
| C[C@H]1O[C@@H](O[C@H]2[C@@H](O)C[C@H](O[C@H]3[C@@H](O)C[C@H](O[C@H]4CC[C@@]5(C)[C@H](CC[C@@H]6[C@@H]5C[C@@H](O)[C@]5(C)[C@@H](C7=CC(=O)OC7)CC[C@]65O)C4)O[C@@H]3C)O[C@@H]2C)C[C@H](O)[C@@H]1O [DIGOXIN] | 0 | 0 | 0 | 0 | 0 | 0 | 0 | 0 | 0 | 0 | 0 | 0 | 0 | 0 |
| CC[C@H](C)[C@@H]1NC(=O)[C@H](Cc2ccc(O)cc2)NC(=O)[C@@H](N)CSSC[C@@H](C(=O)N2CCC[C@H]2C(=O)N[C@@H](CC(C)C)C(=O)NCC(N)=O)NC(=O)[C@H](CC(N)=O)NC(=O)[C@H](CCC(N)=O)NC1=O [OXYTOCIN] | 0 | 0 | 0 | 0 | 0 | 0 | 0 | 0 | 0 | 0 | 0 | 0 | 0 | 0 |
| Cc1cc2c(s1)Nc1ccccc1N=C2N1CCN(C)CC1 [OLANZAPINE] | 1 | 0 | 0 | 0 | 0 | 0 | 0 | 1 | 0 | 1 | 0 | 1 | 0 | 4 |
| Nc1nc2[nH]cc(CCc3ccc(C(=O)N[C@@H](CCC(=O)O)C(=O)O)cc3)c2c(=O)[nH]1 [PEMETREXED] | 0 | 0 | 0 | 0 | 0 | 0 | 0 | 0 | 0 | 0 | 0 | 0 | 0 | 0 |
| Nc1ncnc2c1ncn2[C@@H]1O[C@H](CO)[C@@H](O)[C@H]1O [ADENOSINE] | 0 | 0 | 0 | 0 | 0 | 0 | 0 | 0 | 0 | 0 | 0 | 0 | 0 | 0 |
